Patent US4665092A, “Styrene derivatives, their use as antiallergic agents and intemediate epoxides for their synthesis” (Ortho Pharmaceutical Corporation, priority 1985, dated 1987)

Test: Anti-allergic / anti-inflammatory activity of the invention compounds; the test is not specified (5-lipoxygenase inhibition in RBL-1 cells and active lung anaphylaxis in guinea-pigs are described)
Settings: no IC50 or percent inhibition printed
Protocol: The compounds of the invention of formulae (I) and (II) may be used as pharmaceutical agents in the treatment of inflammation and/or allergic reactions. […] Such testing procedures were carried out on compounds of the invention as described below:
Rat basophilic leukemia cells (RBL-1) were grown in Eagle's Minimal Essential Medium containing 10% fetal calf serum, 5% calf serum, 1% glutamine and 50 mg/L gentamycin and were maintained at 37° C. in a atmosphere containing 5% CO2. Exponentially growing cells were harvested by centrifugation at 400xg for 10 minutes at 4° C. and were washed once with Dulbecco's phosphate buffered saline containing 0.87 mM CaCl2. The cells were resuspended in the same buffer at a concentration of 1.85×10^7 cells/ml. […]
In order to isolate the Δ5 -lipoxygenase product ^14 C-5-HETE that was formed from arachidonic acid, each assay tube was extracted once with 6 volumes of anhydrous diethyl ether. In most assays, the recovery of product was estimated by determining the total amount of radioactivity recovered after extraction. In the remaining assays the recovery of ^14 C-5-HETE was monitored by addition of trace quantities of ^3 H-5-HETE (New England Nuclear) prior to extraction. […] The amount of ^14 C-5-HETE presented was quantitated by liquid scintillation counting in Aquasol II (New England Nuclear) and corrected for recovery. […]

SMILES | activity of the compound (statement in words, figures not given)
O[C@@H](CCCCOC1CCCCO1)[C@@H](/C=C/c1ccccc1)Sc1ccccc1 (stereo partly drawn) [Example 1g, (3R,4S)-4-Hydroxy-1-phenyl-3-phenylthio-8-(2-tetrahydropyranyloxy)-1(E)-octene] | Particularly active
CC(C)=CCC[C@](C)(O)[C@@H](/C=C\C=C\c1ccccc1)Sc1ccccc1 [Example 7, (5R,6S) 1-Phenyl-5-phenylthio-6-hydroxy-6,10-dimethylundeca-(1E,3Z,9)-triene Monoh ydrate] | Particularly active
